# Results taken from patent US20240034717A1, “NOVEL POTASSIUM CHANNEL INHIBITORS” (Saniona A/S, priority 2020, published 2024).
# Target: erythrocyte KCa3.1 channels (Homo sapiens (Human), UniProt O15554)
# Assay: Erythrocyte KCa3.1 assay
# Type: cell-based
# Conditions: human erythrocytes, A23187-activated KCa3.1; read-out: RBC K (in vitro) Human IC50 (μM) Potency category
# Protocol: Human blood was drawn from healthy human volunteers in a standard heparinized blood sampling vial (Vacutainer, Li/heparin, ED Bioscience, Plymouth, UK). The erythrocytes were packed by centrifugation, and the plasma and buffy coat were removed by aspiration. Erythrocytes were washed three times in the experimental salt solution and then stored at 0° C. until use. Blood samples from NMRI mice or from Wistar rats were treated similarly. The methodological principle is outlined in Macey et al. (1978) and further described in Strøbaek et al. (2013). Activation of the erythrocyte KCa3.1 channels were obtained by addition of the Ca^2+ ionophore A23187, which causes synchronized hyperpolarization, which is reported as a CCCP-mediated shift in the unbuffered extracellular pH of the erythrocyte suspension. Standard procedure: 3 mL unbuffered experimental salt solution (in mM: 2 KCl, 154 NaCl, 0.05 CaCl2) was heated to 37° C. with stirring. Packed erythrocytes were added (50 μL, final cytocrit 1.5%), and the extracellular pH (pHo) followed with a glass/calomel (pHG200-8/REF200, Radiometer, Denmark) electrode pair. CCCP (3 μL, final concentration 20 μM) was added followed by varying concentrations of test compounds (DMSO concentration constant). After pH stabilization at ˜7.2, A23187 (3 μL, final concentration 0.33 μM) was added to initiate the experiment. After the peak hyperpolarization was attained, the intracellular pH (pHi constant during the experiment) was found by haemolysing the erythrocytes via addition of 100 μL of Triton-X100.
# The erythrocyte membrane potential, Vm, was calculated according to: […]
# and the fractional remaining Ca^2+-activated K^+-conductance at the concentration C of blocker, fGK(C), was calculated from
# where the K^+ equilibrium potential EK=−107 mV, the Cl^− equilibrium potential ECl=−12 mV and the Vm(0) and Vm(C) are the peak hyperpolarizations in the control and in the presence of a concentration of C of blocker respectively.
# IC50 values for compounds were calculated from a plot of fGK(C) versus C by a fit to the Hill equation, using a custom program written in the IGOR-Pro software (WaveMetrics, Lake Oswego, OR, USA). All IC50-values are reported in μM.
row,SMILES,IC50 [µM]
1,Fc1ccc(C2(NC[C@@H]3CCCN3)CCC2)cc1C(F)(F)F [1-[4-fluoro-3-(trifluoromethyl)phenyl]-N-{[(2S)-pyrrolidin-2-yl]methyl}cyclobutan-1-amine],< 0.3
2,"CC(C)(N)CNC1(c2cccc(Cl)c2)CCC1 [N1-[1-(3-chlorophenyl)cyclobutyl]-2-methylpropane-1,2-diamine]",< 0.3
3,COC(=O)N(C1CNC1)C1(c2ccc(F)c(C(F)(F)F)c2)CC1 [Methyl azetidin-3-yl(1-(4-fluoro-3-(trifluoromethyl)phenyl)cyclopropyl)carbamate],< 1
4,Fc1ccc(C2(NC[C@H]3CCCN3)CCC2)cc1C1CC1 [1-(3-cyclopropyl-4-fluorophenyl)-N-{[(2R)-pyrrolidin-2-yl]methyl}cyclobutan-1-amine],< 1
5,FC(F)(F)Oc1cccc(C2(NC[C@@H]3CCCN3)CCC2)c1 [N-{[(2S)-pyrrolidin-2-yl]methyl}-1-[3-(trifluoromethoxy)phenyl]cyclobutan-1-amine],< 1
6,COC(=O)N(C[C@@H]1CCCN1)C1(c2cc(F)cc(C(F)(F)F)c2)CCC1 [Methyl N-{1-[3-fluoro-5-(trifluoromethyl)phenyl]cyclobutyl}-N-{[(2S)-pyrrolidin-2-yl]methyl}carbamate],< 0.3
7,COC(=O)N(CC(C)(C)N)C1(c2cccc(OC(F)(F)F)c2)CCC1 [Methyl N-(2-amino-2-methylpropyl)-N-{1-[3-(trifluoromethoxy)phenyl]cyclobutyl}carbamate],< 0.3
8,FC(F)(F)c1cccc(C2(NC[C@H]3CCCN3)CCC2)c1 [N-{[(2R)-pyrrolidin-2-yl]methyl}-1-[3-(trifluoromethyl)phenyl]cyclobutan-1-amine],< 1
9,COC(=O)N(C[C@H]1CCCN1)C1(c2ccc(F)c(C(F)(F)F)c2)CCC1 [methyl N-{1-[4-fluoro-3-(trifluoromethyl)phenyl]cyclobutyl}-N-{[(2R)-pyrrolidin-2-yl]methyl}carbamate],< 0.3
10,COC(=O)N(C[C@@H]1CCCN1)C1(c2cccc(Cl)c2)CCC1 [Methyl N-[1-(3-chlorophenyl)cyclobutyl]-N-{[(2S)-pyrrolidin-2-yl]methyl}carbamate],< 0.3
11,Fc1ccc(C2(NC[C@H]3CCCN3)CCC2)cc1C(F)(F)F [1-[4-fluoro-3-(trifluoromethyl)phenyl]-N-{[(2R)-pyrrolidin-2-yl]methyl}cyclobutan-1-amine],< 1
12,"CC(C)(N)CN(C1CCC1)C1(c2cccc(C(F)(F)F)c2)CC1 [N1-cyclobutyl-2-methyl-N1-(1-(3-(trifluoromethyl)phenyl)cyclopropyl)propane-1,2-diamine]",< 0.3
13,COC(=O)N(C[C@@H]1CCCN1)C1(c2cccc(OC(F)(F)F)c2)CCC1 [Methyl N-{[(2S)-pyrrolidin-2-yl]methyl}-N-{1-[3-(trifluoromethoxy)phenyl]cyclobutyl}carbamate],< 0.3
14,COC(=O)N(CC(C)(C)N)C1(c2ccc(F)c(C(F)(F)F)c2)CCC1 [methyl N-(2-amino-2-methylpropyl)-N-{1-[4-fluoro-3-(trifluoromethyl)phenyl]cyclobutyl}carbamate],< 0.3
15,COC(=O)N(CCN)C1(c2ccc(F)c(C(F)(F)F)c2)CC1 [Methyl (2-aminoethyl)(1-(4-fluoro-3-(trifluoromethyl)phenyl)cyclopropyl)carbamate],< 1
16,COC(=O)N(C[C@@H]1COCCN1)C1(c2ccc(F)c(C(F)(F)F)c2)CC1 [Methyl (R)-(1-(4-fluoro-3-(trifluoromethyl)phenyl)cyclopropyl)(morpholin-3-ylmethyl) carbamate],< 1
17,COC(=O)N(C[C@@H]1CCCN1)C1(c2cc(C(F)(F)F)ccc2F)CCC1 [Methyl N-{1-[2-fluoro-5-(trifluoromethyl)phenyl]cyclobutyl}-N-{[(2S)-pyrrolidin-2-yl]methyl}carbamate],< 1
18,COC(=O)N(C[C@H]1CCCN1)C1(c2cc(F)cc(C(F)(F)F)c2)CCC1 [Methyl N-{1-[3-fluoro-5-(trifluoromethyl)phenyl]cyclobutyl}-N-{[(2R)-pyrrolidin-2-yl]methyl}carbamate],< 0.3
19,CS(=O)(=O)N(CC1(N)CC1)C1(c2ccc(F)c(C(F)(F)F)c2)CC1 [N-((1-aminocyclopropyl)methyl)-N-(1-(4-fluoro-3-(trifluoromethyl)-phenyl)cyclopropyl)methanesulfonamide],< 1

row,SMILES,IC50 [µM]
1,COC(=O)N(C[C@@H]1CCCN1)C1(c2cc(Cl)ccc2F)CCC1 [Methyl N-[1-(5-chloro-2-fluorophenyl)cyclobutyl]-N-{[(2S)-pyrrolidin-2-yl]methyl}carbamate],< 1
2,O=C(OCC1CC1)N(C[C@@H]1CCCN1)C1(c2ccc(F)c(C(F)(F)F)c2)CC1 [Cyclopropylmethyl (S)-(1-(4-fluoro-3-(trifluoromethyl)phenyl)cyclopropyl)(pyrrolidin-2-ylmethyl)carbamate],< 0.3
3,COC(=O)N(CC(C)(C)N)C1(c2cc(Cl)ccc2F)CCC1 [Methyl N-(2-amino-2-methylpropyl)-N-[1-(5-chloro-2-fluorophenyl)cyclobutyl]carbamate],< 1
4,COC(=O)N(C[C@@H]1CCCN1)C1(c2ccc(F)c(C(F)(F)F)c2)CCC1 [methyl N-{1-[4-fluoro-3-(trifluoromethyl)phenyl]cyclobutyl}-N-{[(2S)-pyrrolidin-2-yl]methyl}carbamate],< 0.3
5,COC(=O)N(C[C@H]1CCCN1)C1(c2cccc(OC(F)(F)F)c2)CCC1 [Methyl N-{[(2R)-pyrrolidin-2-yl]methyl}-N-{1-[3-(trifluoromethoxy)phenyl]cyclobutyl}carbamate],< 0.3
6,CS(=O)(=O)N(C[C@H]1CCCN1)C1(c2ccc(F)c(C(F)(F)F)c2)CC1 [(R)-N-(1-(4-fluoro-3-(trifluoromethyl)phenyl)cyclopropyl)-N-(pyrrolidin-2-ylmethyl) methane sulfonamide],< 1
7,COC(=O)N(CC(C)(C)N)C1(c2cccc(C(F)(F)F)c2)CCC1 [methyl N-(2-amino-2-methylpropyl)-N-{1-[3-(trifluoromethyl)phenyl]cyclobutyl}carbamate],< 0.3
8,Fc1cc(C(F)(F)F)cc(C2(NC[C@H]3CCCN3)CCC2)c1 [1-[3-fluoro-5-(trifluoromethyl)phenyl]-N-{[(2R)-pyrrolidin-2-yl]methyl}cyclobutan-1-amine],< 1
9,FC(F)(F)c1cccc(C2(NC[C@@H]3CCCN3)CCC2)c1 [N-{[(2S)-pyrrolidin-2-yl]methyl}-1-[3-(trifluoromethyl)phenyl]cyclobutan-1-amine],< 1
10,COC(=O)N(C[C@@H]1CCCN1)C1(c2cccc(C(F)(F)F)c2)CCC1 [methyl N-{[(2S)-pyrrolidin-2-yl]methyl}-N-{1-[3-(trifluoromethyl)phenyl]cyclobutyl}carbamate],< 0.3
11,COC(=O)N(C[C@H]1CCCN1)C1(c2cccc(Cl)c2)CCC1 [Methyl N-[1-(3-chlorophenyl)cyclobutyl]-N-{[(2R)-pyrrolidin-2-yl]methyl}carbamate],< 0.3
12,COC(=O)N(CC(C)(C)N)C1(c2cc(F)cc(C(F)(F)F)c2)CCC1 [Methyl N-(2-amino-2-methylpropyl)-N-{1-[3-fluoro-5-(trifluoromethyl)phenyl]cyclobutyl}carbamate],< 0.3
13,COC(=O)N(C[C@@H]1COCCN1C)C1(c2ccc(F)c(C(F)(F)F)c2)CC1 [Methyl (R)-(1-(4-fluoro-3-(trifluoromethyl)phenyl)cyclopropyl)((4-methylmorpholin-3-yl)methyl)carbamate],< 0.3
14,"CC(C)(N)CNC1(c2cccc(C(F)(F)F)c2)CCC1 [2-methyl-N1-{1-[3-(trifluoromethyl)phenyl]cyclobutyl}propane-1,2-diamine]",< 0.3
15,Fc1ccc(C2(NC[C@@H]3CCCN3)CCC2)cc1C1CC1 [1-(3-cyclopropyl-4-fluorophenyl)-N-{[(2S)-pyrrolidin-2-yl]methyl}cyclobutan-1-amine],< 1
16,FC(F)(F)Oc1cccc(C2(NC[C@H]3CCCN3)CCC2)c1 [N-{[(2R)-pyrrolidin-2-yl]methyl}-1-[3-(trifluoromethoxy)phenyl]cyclobutan-1-amine],< 1
17,COC(=O)N(C[C@H]1CCCN1)C1(c2cccc(C(F)(F)F)c2)CCC1 [methyl N-{[(2R)-pyrrolidin-2-yl]methyl}-N-{1-[3-(trifluoromethyl)phenyl]cyclobutyl}carbamate],< 0.3
18,"CC(C)(N)CNC1(c2ccc(F)c(C(F)(F)F)c2)CCC1 [N1-{1-[4-fluoro-3-(trifluoromethyl)phenyl]cyclobutyl}-2-methylpropane-1,2-diamine]",< 0.3
